Paper PMC10788915, “Fragment Merging, Growing, and Linking Identify New Trypanothione Reductase Inhibitors for Leishmaniasis” (Journal of Medicinal Chemistry, 2024)
Where two headings read alike, the source gives them in different places.

Legend:
[1] = tested on: L. infantum axenic amastigotes; experiment: In vitro inhibition of axenic amastigote growth (MTT); type: cell-based, Leishmania infantum; conditions: 72 h, read-out: axenic amastigote EC50 ± SE (95% CI)
Description: Axenic amastigote growth inhibition was evaluated using L. infantum strain (MHOM/TN/80/IPT1, WHO international reference strain). Axenic amastigote cultures were obtained as described previously with modifications.[45] Promastigotes were grown in Schneider’s Drosophila medium (SIGMA) containing 10% heat-inactivated fetal calf serum (FCS)(GIBCO-BRL) and 2% gentamicin (50 mg/L)(Sigma) in 25 cm^2 flasks at 22 °C. After 4–5 days, the parasites were adjusted to 1 × 10^6 parasites/mL in axenic medium MAA/20 consisting of modified medium 199 (Gibco BRL) with Hanks’ salts supplemented with 0.5% tryptic soy broth (Sigma), 0.01 mM bathocuproine disulfonic acid, 3 mM L-cysteine, 15 mM D-glucose, 5 mM L-glutamine, 4 mM NaHCO3, 0.023 mM bovine hemin, and 25 mM HEPES to a final pH of 6.5 and supplemented with 20% pretested FCS, and axenic amastigotes were obtained by shifting the incubation conditions: 198 μL of suspension was seeded in triplicate in 96-well flat bottom microplates and incubated at 37 °C, 5% CO2 for 48 h in order to allow the axenization. The amastigote cells were visualized under the light microscope to confirm transformation. Then, 2 μL of the selected compounds with varying concentrations were added: 100, 50, 25, 12.5, 6.25, 3.12, 1.56, 0.8, 0.4, 0.2, 0.1, 0.05 μM. […] Each experiment was conducted in triplicate for each drug concentration, and three independent experiments were performed. To estimate the 50% inhibitory concentration (IC50), the (3-[4.5-dimethylthiazol-2-yl]-2.5-diphenyltetrazolium bromide) (MTT) micromethod was used throughout the experiments with modification. After 72 h of incubation, 30 μL of MTT was added to each well, and the plates were further incubated for 3 h. The absorbance at 550 nm was measured with a 96-well scanner. Antileishmanial activity was expressed as the percentage of inhibition in the number of live parasites compared to that in the control (nontreated parasites). % inhibition was calculated as follows: % growth inhibition = [(absorb cell with drug × 100)/absorb cell control] – 100. Results were analyzed by GraphPad Prism 5.0, dose–response curves were obtained and IC50 deduced (GraphPad Software Inc., San Diego, USA).

[2] = molecular target: T1, Leishmania infantum TR (LiTR) (Leishmania infantum, UniProt A4HSF7); experiment: LiTR enzymatic inhibition assay (NADPH oxidation at 340 nm); type: biochemical; conditions: for LiTR residual activity % / remaining activity at 100 µM / remaining activity at 10 µM: mean ± SD, n = 3; for IC50: 50 nM LiTR, 150 μM trypanothione, 100 μM NADPH, 25 °C; for remaining activity at 100 µM / remaining activity at 10 µM: read-out: LiTR residual activity %
T1 construct: The TbTR and LiTR genes were subcloned in a pET28b vector; 6-His (cleaved yes); made in house; host or cells: E. coli BL21(DE3), pET28b
T1 sequence (A4HSF7 1-491): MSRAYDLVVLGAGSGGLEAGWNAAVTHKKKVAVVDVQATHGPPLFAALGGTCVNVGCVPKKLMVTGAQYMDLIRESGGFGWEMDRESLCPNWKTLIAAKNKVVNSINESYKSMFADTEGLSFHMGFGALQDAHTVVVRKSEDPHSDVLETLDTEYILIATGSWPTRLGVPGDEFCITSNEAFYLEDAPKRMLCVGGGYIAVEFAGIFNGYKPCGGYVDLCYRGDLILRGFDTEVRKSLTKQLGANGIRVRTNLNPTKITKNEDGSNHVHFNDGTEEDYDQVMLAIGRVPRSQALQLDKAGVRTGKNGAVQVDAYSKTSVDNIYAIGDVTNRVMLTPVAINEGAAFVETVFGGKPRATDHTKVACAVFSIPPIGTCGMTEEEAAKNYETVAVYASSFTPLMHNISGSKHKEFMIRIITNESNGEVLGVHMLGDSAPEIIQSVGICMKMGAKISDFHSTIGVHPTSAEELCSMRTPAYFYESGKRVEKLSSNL
Description: (§1) Enzymatic inhibition assays were performed in 50 mM HEPES pH 7.4, 40 mM NaCl at 25 °C using a JASCO V650 spectrophotometer equipped with a JASCO EHC 716 Peltier element to ensure controlled temperature. The first experiment was carried out using 50 nM LiTR, 10 or 100 μM compound to be tested, 150 μM trypanothione (trypanothione disulfide purchased from Bachem), and 100 μM NADPH (tetrasodium salt, purchased from Calbiochem). The best inhibitor candidates were then tested at concentrations ranging from 1 nM to 250 μM to determine the IC50. Assays were initiated upon addition of 100 μM NADPH to 50 nM LiTR or hGR (human glutathione reductase purchased from Sigma-Aldrich) in the presence of different concentration of compounds and 150 μM trypanothione. For both experiments, the oxidation of NADPH was followed as a decrease in absorbance at 340 nm. For each concentration of compound, the initial velocity of the NADPH oxidation was used to determine the percentage of LiTR activity with respect to that in the absence of any compound. The IC50 was determined upon fitting the residual activity of TR as a dose–response logistic equation defined as ymin + (ymax – ymin)/(1 + (x/IC50)^slope). […] The Ki was determined graphically upon linear fitting of data points for each trypanothione concentration. Data analysis was performed with QtiPlot 0.9.8.9 svn 2288, and graphs were made with Matplotlib.
(§2) Figure S3. Inhibition assay of LiTR (red) and hGR (grey) with compounds 5-6, 9-10 and 14.
(§3) Enzymatic assays were carried out at 25°C on a JASCO V650 spectrophotometer equipped with a JASCO EHC716 Peltier unit. Compound concentrations used during the experiments range from 1 […]
(§4) higher than 30 µM and 20 µM, respectively. Briefly, 50 nM LiTR or hGR (Sigma Aldrich) were mixed in 50 mM HEPES pH 7.4, 40 mM NaCl with each compound and 150 µM trypanothione or glutathione. After 3-minute incubation at 25°C, the measurement was initiated upon addition of 100 µM NADPH. The oxidation of NADPH was followed as a decrease in absorbance at 340 nm. Each initial velocity of LiTR enzymatic reaction with the compounds was expressed as a percentage of residual activity with respect to that in the absence of compound. Each data point is the mean of two measurements. The IC50 was determined upon fitting the data as a dose response logistic equation defined by the Kaleidagraph software as ymin+(ymax-ymin)/(1+(x/IC50)^slope).
(§5) (1 picture or pasted object on this page, not shown here)

[3] = tested on: human THP-1-derived macrophages; experiment: Cytotoxicity assay on human THP-1-derived macrophages (MTT); type: cell-based; conditions: for CC50: 72 h, MTT, read-out: human THP-1-derived macrophage CC50 ± SE (95% CI)
Description: (§6) To assess the cytotoxicity of compounds on mammalian macrophages, we tested all the compounds against both human leukemia monocyte cell line (THP-1 cells, ATCC) differentiated into macrophages by treatment with 40 ng/mL of phorbol myristate acetate (PMA; Sigma) for 48 h and peritoneal exudate macrophages harvested from Balb/c mice. […] Cell viability was evaluated using the MTT assay, and the concentration of the compound that produced a 50% reduction of cell viability in treated culture cells with respect to untreated ones (CC50) was determined by GraphPad Prism 5.0 (GraphPad Software Inc., San Diego, USA). […] The selectivity index for each compound was calculated as the ratio of cytotoxicity (CC50) in macrophages cells to activity (IC50) against Leishmania axenic amastigotes. The experiments were performed in triplicate, and two independent experiments were conducted.

[4] = molecular target: T2, hGR (human glutathione reductase) (Homo sapiens, UniProt P00390); experiment: hGR enzymatic inhibition assay (NADPH oxidation at 340 nm); type: biochemical; conditions: for IC50: 50 nM hGR, 100 μM NADPH, 25 °C
T2 construct: purchased Sigma-Aldrich
T2 sequence (P00390 44-522): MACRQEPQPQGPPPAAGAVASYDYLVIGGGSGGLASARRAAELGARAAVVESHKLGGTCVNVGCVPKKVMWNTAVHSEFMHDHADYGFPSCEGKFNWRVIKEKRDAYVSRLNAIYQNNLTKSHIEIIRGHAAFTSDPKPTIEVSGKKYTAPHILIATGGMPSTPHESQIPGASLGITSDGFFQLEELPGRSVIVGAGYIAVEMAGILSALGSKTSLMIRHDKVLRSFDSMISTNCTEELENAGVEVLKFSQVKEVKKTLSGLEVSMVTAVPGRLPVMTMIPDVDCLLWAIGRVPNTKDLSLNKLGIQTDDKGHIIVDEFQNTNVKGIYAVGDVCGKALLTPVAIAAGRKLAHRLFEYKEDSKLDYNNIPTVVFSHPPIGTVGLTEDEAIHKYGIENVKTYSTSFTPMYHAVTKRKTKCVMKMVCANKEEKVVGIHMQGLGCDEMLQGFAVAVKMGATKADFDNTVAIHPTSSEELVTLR
Description: as §1, §2, §3, §4, §5

[5] = Cytotoxicity assay on human THP-1-derived macrophages (MTT); type: cell-based; conditions: human, THP-1 cells differentiated into macrophages with PMA, 72 h, MTT; read-out: human THP-1-derived macrophage CC50 ± SE (95% CI)
Description: as §6

[6] = Cytotoxicity assay on primary murine macrophages (MTT); type: cell-based, Balb/c mice; conditions: Balb/c, mouse, primary peritoneal exudate macrophages, read-out: primary murine macrophage CC50 ± SE (95% CI)
Description: as §6

[7] = tested on: primary murine macrophages; experiment: as above; type: cell-based, Balb/c mice; conditions: Balb/c peritoneal macrophages, 72 h, read-out: primary murine macrophage CC50 ± SE (95% CI)
Description: as §6

[8] = Solubility observed in the enzymatic assay; type: physicochemical; conditions: no reliable data at concentrations higher than 30 µM (5) and 20 µM (6)
Description: as §2, §3, §4, §5

| Compound | EC50 [1] [µM] | LiTR residual activity % ([2]; compound at 10 μM) | SI = human THP-1-derived macrophage CC50/axenic amastigote EC50 [3] | CC50 [3] [µM] | IC50 [4] [µM] | SI (ratio of GR IC50/TR IC50) ([4]; hGR versus LiTR) | EC50 ([1]; Leishmania infantum) [µM] | IC50 [2] [µM] | decrease in TR activity ([2]; compound at 100 μM) [%] | LiTR residual activity % ([2]; compound at 100 μM, 100 µM) | remaining activity at 100 µM ([2]; compound at 100 μM) [%] | CC50 at 72 h [5] [µM] | CC50 at 72 h [6] [µM] | CC50 [7] [µM] | solubility in the enzymatic assay [8] | remaining activity at 10 µM ([2]; compound at 10 μM) [%] | gain in LiTR IC50 with respect to 5 ([2]; compared to compound 5 (IC50 54.6 μM)) |
| --- | --- | --- | --- | --- | --- | --- | --- | --- | --- | --- | --- | --- | --- | --- | --- | --- | --- |
| N-((5-((4-Fluorophenethyl)carbamoyl)furan-2-yl)methyl)-N-(4-fluorophenyl)-4-(3-(2-(trifluoromethyl)-10H-phenothiazin-10-yl)propyl)piperazine-1-carboxamide [Compound 7] | 13 ± 1.5 | 70.8 ± 5.9 @10 μM % | 1.8 | 23.4 ± 4.6 | – | – | – | – | – | – | – | – | – | – | – | – | – |
| O=C(NCCc1ccc(F)cc1)c1ccc(CN(C(=O)N2CCN(CCCc3ccccc3)CC2)c2ccc(F)cc2)o1 [Compound 5, N-((5-((4-Fluorophenethyl)carbamoyl)furan-2-yl)methyl)-N-(4-fluorophenyl)-4-(3-phenylpropyl)piperazine-1-carboxamide] | 12 ± 1.7 | – | 0.8 | 6.5 ± 0.6 | 163 ± 58.8 | 3 | 11.5 ± 2.1 | 54.6 ± 20.9 | 35.1 | 65.4 ± 3.0 @100 μM % | 64.9 | 9.6 ± 0.71 | 12.9 ± 0.9 | 9.1 ± 0.9 | low solubility | – | – |
| 4-(3,4-Dichlorobenzyl)-N-(4-fluorophenyl)-N-((5-(phenethylcarbamoyl)furan-2-yl)methyl)piperazine-1-carboxamide [Compound 8] | 10.3 ± 0.9 | 94.1 ± 4.9 @10 μM % | 1.1 | 11.7 ± 1.6 | – | – | – | – | – | – | – | – | – | 14.4 ± 1.6 | – | – | – |
| O=C(O)c1ccc(N(Cc2ccc(C(=O)NCCc3ccc(F)cc3)o2)C(=O)N2CCN(CCCc3ccccc3)CC2)cc1 [Compound 11, 4-(N-((5-((4-Fluorophenethyl)carbamoyl)furan-2-yl)methyl)-4-(3-phenylpropyl)piperazine-1-carboxamido)benzoic Acid] | – | – | >2 | – | – | – | 25.6 ± 7.4 | – | – | – | – | > 50 | > 50 | – | – | 74.5 ± 9.3 | – |
| O=C(NCCc1ccc(F)cc1)c1ccc(CNC(=O)N2CCN(CCCc3ccccc3)CC2)o1 [Compound 12, N-((5-((4-Fluorophenethyl)carbamoyl)furan-2-yl)methyl)-4-(3-phenylpropyl)piperazine-1-carboxamide] | – | – | 2.7 | – | – | – | 14.1 ± 1.3 | – | – | – | – | 37.6 ± 13.8 | 26.7 ± 4.5 | – | – | 74.6 ± 9.3 | – |
| O=C(NCCc1ccc(F)cc1)c1ccc(CN(C(=O)N2CCN(CCCN3c4ccccc4Sc4ccc(Cl)cc43)CC2)c2ccc(F)cc2)o1 [Compound 6, 4-(3-(2-Chloro-10H-phenothiazin-10-yl)propyl)-N-((5-((4-fluorophenethyl)carbamoyl)furan-2-yl)methyl)-N-(4-fluorophenyl)piperazine-1-carboxamide] | 13 ± 1.5 | – | – | – | 9.6 ± 1.4 | – | 12 ± 1.7 | 21.7 ± 4.4 | – | – | – | – | – | – | low solubility | 46.9 ± 18 | more than 2 fold |
| O=C(NCCc1ccc(F)cc1)c1ccc(CNC(=O)N2CCN(Cc3ccc(Cl)c(Cl)c3)CC2)o1 [Compound 13, 4-(3,4-Dichlorobenzyl)-N-((5-((4-fluorophenethyl)carbamoyl)furan-2-yl)methyl)piperazine-1-carboxamide] | – | – | 1.9 | – | – | – | 11.2 ± 0.7 | – | – | – | – | 21 ± 3.1 | 12.6 ± 0.9 | – | – | 89.2 ± 4.9 | – |
| O=C(Nc1ccc(F)cc1)N1CCN(CCCc2ccccc2)CC1 [Compound 4, N-(4-Fluorophenyl)-4-(3-phenylpropyl)piperazine-1-carboxamide] | – | – | 0.8 | – | – | – | 11.5 ± 2.1 | – | – | – | 96.7 ± 6.1 | 9.6 ± 0.71 | 12.9 ± 0.9 | – | – | – | – |
